Experimental data taken from paper PMC5739799 (Oncotarget, 2017).

Assay: Steady-state plasma pharmacokinetics after oral dosing for 5 days
Format: in vivo, BALB/c nu/nu mice
Protocol: Pharmacokinetic studies were performed in 6–8-week-old female BALB/c nu/nu mice (Charles River, Sulzfeld, Germany). […] Parent compounds and metabolites M-2 and M-5 were analyzed in plasma samples using validated bioanalytical liquid chromatography-tandem mass spectrometry (LC-MS/MS) methods according to an experimental protocol described earlier. PK parameters, namely the AUC(0–24)ss and Cmax, were calculated from plasma concentrations using a non-compartmental analysis.

[1] = after oral regorafenib 10 mg/kg/day for 5 days, total = molar sum of regorafenib, M-2, M-5

AUC(0–24)ss (percent of total) [1] | AUC(0–24)ss (percent of total) (after oral sorafenib tosylate 30 mg/kg/day for 5 days, total = molar sum of sorafenib and M-2) | SMILES
9% of total | 1% of total | CNC(=O)c1cc(Oc2ccc(NC(=O)Nc3ccc(Cl)c(C(F)(F)F)c3)c(F)c2)cc[n+]1[O-] [M-2]
1% of total |  | NC(=O)c1cc(Oc2ccc(NC(=O)Nc3ccc(Cl)c(C(F)(F)F)c3)c(F)c2)cc[n+]1[O-] [M-5]
